The target of the test is T1, Ma-PPK (Methanosarcina acetivorans, UniProt Q8TUI6).
T1 construct: recombinant full-length, heterologously overexpressed and purified; gene product 2187 bp (about 728 residues), 81 kDa; tag and host only in supplement
The test can be described thus: polyphosphate synthesis, toluidine blue absorbance at […] nm. Type of test: biochemical. Particulars: variable Mg-ATP; trimethylsilyl polyP; 37 °C; Km given as unchanged with or without 120 mM K+; read-out: KmATP.

T1 sequence (Q8TUI6 entry or part of it): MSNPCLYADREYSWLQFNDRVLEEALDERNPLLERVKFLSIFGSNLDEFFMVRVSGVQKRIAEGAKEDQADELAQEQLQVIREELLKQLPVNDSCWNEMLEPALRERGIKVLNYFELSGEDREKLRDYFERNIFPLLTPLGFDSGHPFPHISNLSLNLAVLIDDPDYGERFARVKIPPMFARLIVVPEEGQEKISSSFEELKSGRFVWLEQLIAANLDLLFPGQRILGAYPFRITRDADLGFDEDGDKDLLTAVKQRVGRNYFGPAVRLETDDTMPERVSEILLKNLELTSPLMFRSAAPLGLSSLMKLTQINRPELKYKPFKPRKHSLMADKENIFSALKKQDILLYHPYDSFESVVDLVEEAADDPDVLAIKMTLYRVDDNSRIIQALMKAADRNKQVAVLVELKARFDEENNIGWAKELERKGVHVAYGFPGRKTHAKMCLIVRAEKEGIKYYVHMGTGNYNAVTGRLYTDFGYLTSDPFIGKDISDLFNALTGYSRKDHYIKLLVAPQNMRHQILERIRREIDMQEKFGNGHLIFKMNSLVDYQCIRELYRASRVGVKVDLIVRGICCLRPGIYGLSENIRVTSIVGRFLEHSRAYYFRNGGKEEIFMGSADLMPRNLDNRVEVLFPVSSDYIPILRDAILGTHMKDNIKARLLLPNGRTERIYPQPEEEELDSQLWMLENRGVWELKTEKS

For `Nc1ncnc2c1ncn2[C@@H]1O[C@H](COP(=O)(O)OP(=O)(O)OP(=O)(O)O)[C@@H](O)[C@H]1O` [ATP], the Km amounted to 1400 µM.

These data come from paper PMC6821655, “Marine Archaeon Methanosarcina acetivorans Enhances Polyphosphate Metabolism Under Persistent Cadmium Stress” (Frontiers in Microbiology, 2019).
